Patent US6369294B1, “Methods comprising apoptosis inhibitors for the generation of transgenic pigs” (Texas A&M University System, priority 1996, dated 2002)
Values joined by “and” are separate entries in the source; they are usually repeats but may differ in a detail not shown here. Identical values can stand only once. Values belong to the molecule of their own block, whether it stands above or below them.

Legend:
[1] = test system: porcine primordial germ cells; assay: Isolation of porcine primordial germ cells with bFGF; type: cell-based
Description: (§1) STO feeder cells were plated in PES media alone for 48 hours or in PES media containing 40 ng/ml bFGF for the same period of time. […] It is not presently known whether bFGF is acting directly on the proliferation rate of the PGCs or whether the effect is through a change in the physiology of the STO cells which then effects the PGCs.
Thirdly, when low density feeders are used to culture porcine PGCs, very few colonies grow and the few that do grow are always in direct contact with the feeder cells. No colonies grow on the plastic, even if surrounded by STO cells. Thus it is unlikely that the STO's are producing a soluble factor. Additionally, to isolate porcine PGC-derived cells, it is an absolute requirement that bFGF be added to the feeders. The bFGF drastically changes the morphology of the feeder cells. Thus the bFGF may be acting on the feeder to promote/inhibit production of a matrix component versus acting directly on the PGC cells. Also, very few colonies are obtained when plating porcine PGCs on feeders made within 6 hours. However, feeders made 24 hours prior to plating yield much better results. Thus this period of time may be required for synthesis and secretion of some matrix component.

[2] = test system: STO feeder cells; assay: STO feeder cells plated with or without bFGF, morphology; type: cell-based, mouse; settings: PES media containing 40 ng/ml bFGF for 48 hours
Description: as §1

[3] = test system: porcine ICM (pICM); assay: In vitro differentiation assay of cultured porcine inner cell mass, graded 1 to 5; type: cell-based; settings: for differentiation score on day two, study 2: scale 1 (fully undifferentiated) to 5 (fully differentiated), p<0.05
Text: The inventors have developed a grading system to detect changes in the differentiation status of in vitro cultured PGC cells or the pICM. In the first study porcine ICMs (day 7) were isolated by immunosurgery and cultured 4 days in DMEM-based medium (D medium) or DMEM/Hams F-10 (1:1)-based medium (D/H medium) with or without human leukemia inhibitory factor (hLIF; 1000 μ/ml). For the second study pICMs were collected as above and cultured 4 days in one of six treatments: control medium, human leukemia inhibitory factor (hLIF; 1000 μ/ml), human interleukin-6 (hIL-6; 100 ng/ml), hIL-6+hIL-6 soluble receptor (hIL6+sR; 100 ng/ml+2.5 μg/ml), human oncostatin M (hOSM; 100 ng/ml), or rat ciliary neurotrophic factor (rCNTF; 100 ng/ml). All cytokines were prepared in Dulbecco's Modified Eagles Medium/Hams F-10 (1:1)-based medium. The colonies were photographed daily for morphological analysis.
pICMs were categorized into one of two types based on their morphological profile: type A, non-epithelial or type B, epithelial-like. The pICM differentiation was evaluated using standardized differentiation profiles. Each pICM series was graded on a scale of 1 (fully undifferentiated) to 5 (fully differentiated) for each time point. Differentiation was verified by alkaline phosphatase activity, cytokeratin staining, and scanning electron microscopy. […] Furthermore, addition of rCNTF gave the lowest overall mean differentiation score (2.53±0.15). […] The grading system employed was thus an effective tool for detecting treatment effects on differentiation of the developing pICM.

[4] = test system: cultured PGCs; assay: Passage of cultured PGCs in presence or absence of α2-macroglobulin, alkaline phosphatase positive colonies; type: cell-based
Text: The effect of α2-macroglobulin on the ability to passage cells was also studied. To test the ability of α2-macroglobulin to protect against the losses normally observed when cultured PGCs are trypsinized, cells were passaged twice in the presence or absence of α2-macroglobulin, the colonies fixed, stained for alkaline phosphatase and the number of alkaline phosphatase positive colonies determined. PGCs were collected in PES and plated on feeder layers in the presence or absence of media containing 1 μg/ml α2-macroglobulin. Colonies were allowed to grow for 7 days, trypsinized as described above and plated again in media with or without α2-macroglobulin. Samples were done in duplicate and corrected for the number of added cells.

[5] = test system: PGCs; assay: Effect of isolation procedure and α2-macroglobulin on PGCs developing into alkaline phosphatase positive colonies; type: cell-based, pig; settings: α2-macroglobulin 1 μg/ml; for alkaline phosphatase positive colonies (replicates R1-R3): counted six days later
Description: Genital ridges from two day 25-27 pig fetuses were collected, divided into four groups (a 2×2 study), placed in PES media either with α2-macroglobulin at 1 μg/ml (2 groups) or without α2-macroglobulin (2 groups), and immediately either needle teased to allow colonies to seep out (2 groups) or macerated (2 groups) with the help of a syringe. Briefly, the ridges were broken into small pieces by pressing them against the bottom of a dish with the back of a syringe. The disrupted tissues were further broken up by passing them several times through a 20 gauge needle until all large tissue clumps had been disrupted. Following tissue disruption, samples were centrifuged for 3-5 minutes at 250×g to settle tissue fragments and supernatant containing mostly single cells collected and centrifuged at 1000×g for 5 min. The resulting pellet was resuspended in PES containing LIF, SCF, and bFGF with or without human α2-macroglobulin, cells counted, and plated in triplicate in feeder layers.
Six days later colonies were fixed, stained for alkaline phosphatase activity, and counted.

[6] = test system: PGC; assay: Optimal concentration of α2-macroglobulin: ratio of AP positive colonies to control samples; type: cell-based; settings: for ratio of AP positive colonies compared to control samples: three trials
Description: An additional study was performed to determine the optimal concentration of α2-macroglobulin. The ratio of AP positive colonies in samples containing either 1 μg/ml or 0.5 μg/ml as compared to control samples was determined for three trials. The ratios at 1 μg/ml were 0.81±0.37, 0.84±0.23 and 0.83±0.27, while at 0.5 μg/ml they were 1.98±0.36, 1.43±0.27 and 1.70±0.41.

[7] = test system: bovine PGC's; assay: Third passage bovine PGC colonies with or without α2-macroglobulin (preliminary study); type: cell-based
Text: The ability of colonies cultured and passaged in the presence or absence of α2-macroglobulin to survive in an undifferentiated state for multiple passages is currently being studied. In a preliminary study twice as many colonies were obtained from third passage bovine PGC's (22 versus 45) cultured in media with α2-macroglobulin than in media without the protease inhibitor. Moreover, the colonies appear on average 2-3 days earlier and are of larger size when cultured in the presence of α2-macroglobulin.

[8] = test system: PGC; assay: Addition of uteroferrin or uteroferrin rose to PGC culture media; type: cell-based
Description: The pellet, containing PGCs, was resuspended in PES media Following collection, the cells were rinsed 3 times by centrifugation and resuspended in PEG medium containing soluble recombinant human stem cells factor at 30 ng/ml, human basic fibroblast growth factor at 40 ng/ml, and LIF at 20 ng/ml and plated onto STO feeder layers. Additionally, the effect of the addition of 100 ng/ml of uteroferrin in the presence or absence of stem cell factor on the number of alkaline phosphatase positive colonies was determined.
In order to determine the beneficial effect provided by the serpin alone, a broad range protease inhibitor called α2-macroglobulin was studied (Feige et al., 1996).

[9] = rCNTF 100 ng/ml, hLIF 1000 μ/ml

Molecule: bFGF: basic fibroblast growth factor
requirement for the isolation of porcine primordial germ cells [1]: essential component for the isolation of porcine primordial germ cells | change in morphology of the feeder cells [2]: drastic change is seen in the morphology of the feeder cells

Molecule: hLIF: human leukemia inhibitory factor
delay of differentiation of the developing pICM, study 1 ([3]; hLIF 1000 μ/ml, D or D/H medium, 4 days, p=0.08): neither hLIF nor culture medium delayed differentiation | differentiation score on day two, study 2 [3, 9]: 2.70±0.16

Normalized value ([4]; 1st passage +, 2nd passage +): 2052 colonies per 1000 colonies plated | Normalized value ([4]; 1st passage +, 2nd passage −): 1512 colonies per 1000 colonies plated | Normalized value ([4]; 1st passage −, 2nd passage +): 1422 colonies per 1000 colonies plated | Normalized value ([4]; first passage, media with 1 μg/ml α2-macroglobulin): 22028 colonies per million cells | Normalized value ([5]; pig 1, macerate): 16395 colonies per million cells | alkaline phosphatase positive colonies (replicates R1-R3) ([5]; pig 1, macerate): 4712 and 5176 and 4368 | Normalized value ([5]; pig 1, teasing): 18087 colonies per million cells | alkaline phosphatase positive colonies (replicates R1-R3) ([5]; pig 1, teasing): 4688 and 4960 and 5424 | Normalized value ([5]; pig 2, macerate): 35865 colonies per million cells | alkaline phosphatase positive colonies (replicates R1-R3) ([5]; pig 2, macerate): 8312 and 7872 and 8896 | Normalized value ([5]; pig 2, teasing): 37380 colonies per million cells | alkaline phosphatase positive colonies (replicates R1-R3) ([5]; pig 2, teasing): 6200 and 6008 and 6864
Molecule: α2-macroglobulin: broad range protease inhibitor; apoptosis inhibitor added to PGC culture media at 1 μg/ml
factor by which the lower dose is more effective in generating AP positive colonies ([6]; 0.5 μg/ml versus 1 μg/ml): ~2 | ratio of AP positive colonies compared to control samples ([6]; α2-macroglobulin 0.5 μg/ml): 1.98±0.36 and 1.43±0.27 and 1.70±0.41 | ratio of AP positive colonies compared to control samples ([6]; α2-macroglobulin 1 μg/ml): 0.81±0.37 and 0.84±0.23 and 0.83±0.27 | number of colonies from third passage bovine PGC's ([7]; media with α2-macroglobulin, 22 without): 45 | colonies appear earlier than without α2-macroglobulin ([7]; on average): 2 to 3 days

B1: rCNTF: rat ciliary neurotrophic factor (protein, UniProt P20294 1-200, looked up)
Ciliary neurotrophic factor: MAFAEQTPLTLHRRDLCSRSIWLARKIRSDLTALMESYVKHQGLNKNINLDSVDGVPVASTDRWSEMTEAERLQENLQAYRTFQGMLTKLLEDQRVHFTPTEGDFHQAIHTLMLQVSAFAYQLEELMVLLEQKIPENEADGMPATVGDGGLFEKKLWGLKVLQELSQWTVRSIHDLRVISSHQMGISALESHYGAKDKQM
differentiation score on day two, study 2 [3, 9]: 2.07±0.15 | overall mean differentiation score, study 2 ([3]; scale 1 to 5, 4 day culture, rCNTF 100 ng/ml): 2.53±0.15

B2: uteroferrin: purple colored, progesterone-induced iron-containing glycoprotein secreted by uterine endometrial epithelium of pigs (protein, UniProt P09889 21-340, looked up)
Tartrate-resistant acid …: GTRTNTRTAPTPILRFVAVGDWGGVPNAPFHTAREMANAKAIATTVKTLGADFILSLGDNFYFTGVHDAKDKRFQETFEDVFSDPSLRNVPWHVLAGNHDHLGNVSAQIAYSKISKRWNFPSPYYRLRFKIPRSNVSVAIFMLDTVTLCGNSDDFVSQQPERPRNLALARTQLAWIKKQLAAAKEDYVLVAGHYPVWSIAEHGPTHCLVKQLLPLLTTHKVTAYLCGHDHNLQYLQDENGLGFVLSGAGNFMDPSKKHLRKVPNGYLRFHFGAENSLGGFAYVEITPKEMSVTYIEASGKSLFKTKLPRRARSEHQHRRA
effect on the number of resulting PGC colonies [8]: some improvement
